The supplement of paper PMC8837787

System: Saccharomyces cerevisiae ABC16-Green Monster
Assay: growth inhibition at single dose (up to 150 µM), below the 70% cut-off for dose-response; higher = more potent
Details: 18 h; 30 °C; YPD
How it was run: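 Percent growth inhibition is the reported value. Drug-sensitive S. cerevisiae ABC16-Green Monster cultures in log phase (OD600 0.1–0.2), 200 µl per well in 96-well plates, received each library compound once at 150 µM in biological duplicates, with untreated cultures run alongside. Growth was followed by OD600 at 0 h and after 18 h at 30 °C. Dose-response was not done for compounds below 70% in both replicates.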

SMILES | growth inhibition at single dose [%]
CN1C=C(c2ccc3ccccc3n2)C(c2c[nH]c3ccccc23)c2ccccc21 (stereo not given) | < 70
O=C(Nc1ncccc1O)c1ccc(N2CCOCC2)nc1 | < 70
CC(C)(C)c1cnc(NC(=O)c2ccccc2O)s1 | < 70
Cc1cc(NCCN2CCCCC2)c2ccc3ccccc3c2n1 | < 70
C=C(C)CCC(C)N1CCC(N2CCC(C(=O)NCCc3ccccc3)CC2)CC1 (stereo not given) | < 70
c1ccc2cc(OCCNc3ncnc4sccc34)ccc2c1 | < 70
CC(C)n1ncc2cc(C(=O)Nc3nc(-c4ccccn4)cs3)cnc21 | < 70
COc1cc(C(=O)Nc2nc3c(cc4c5c(cccc53)CC4)s2)cc(OC)c1OC | < 70
CN(C)CCCNCc1ccc(-c2ccc(F)c(Cl)c2)o1 | < 70
COc1cc(-c2nc(-c3ccccc3)c(-c3ccccc3)[nH]2)cc(OC)c1O | < 70
CCOc1ccc2c(c1)CN(Cc1ccc(Cl)cc1)CO2 | < 70
O=C(NCc1ccccc1)/C(=C/c1ccc(OCc2ccccc2)cc1)c1nc2ccccc2[nH]1 | < 70
Cc1cc(N2CCN(C)CC2)n2ncc(-c3ccc(F)cc3)c2n1 | < 70
CCOc1cc(Cl)c(C(C)NC(=O)c2cccc(OC)c2)cc1OCC (stereo not given) | < 70
CN(C)c1cc(CNC(=O)c2cc3c(F)cccc3s2)ccn1 | < 70
CCCCc1c(CCC)c(=N)c2ccccc2n1C | < 70
c1ccc(NCCNc2nc(-c3ccncc3)nc3ccccc23)nc1 | < 70
C=CCn1c(C)cc(C(=O)COC(=O)C(O)(c2ccccc2)c2ccccc2)c1C | < 70
Cc1ccc2c(c1)nc1n2CN(CCN2CCOCC2)CN1Cc1ccccc1 | < 70
CCOc1ccccc1C(=O)Nc1cccc(-c2nc3ncccn3c2C)c1 | < 70
CCCn1c(=N)c(C(=O)NC2CCCCC2)cc2c(=O)n3cccc(C)c3nc21 | < 70
Cc1ccc(CSCc2ccc(C(=O)NC3CC3)o2)cc1 | < 70
CCOC(=O)c1noc(N)c1-c1ccccc1 | < 70

SMILES | growth inhibition at single dose [%]
COc1ccc(C(O)(CCC(C)C)C(CN2CCOCC2)c2ccc(Cl)cc2)cc1 (stereo not given) | < 70
O=C(Nc1nc2ccc(OC(F)(F)F)cc2s1)c1cnccn1 | < 70
Cc1c(C)n(CCN(C)C)c2ncn3nc(-c4ccccc4O)nc3c12 | < 70
CC1=Nc2ccc(Cl)cc2C(c2ccccc2)N1CCNC(=O)CN(C)C (stereo not given) | < 70
CC(=O)NCC1CN(c2ccc(-c3ccc(CO)cc3)c(F)c2)C(=O)O1 (stereo not given) | < 70
Cn1c(=O)c2c(S(C)(=O)=O)snc2n(C)c1=O | < 70
COC(=O)c1c(NC(=O)c2c(F)c(F)c(F)c(F)c2F)sc2c1CCCCC2 | < 70
Cc1noc(C)c1S(=O)(=O)N(Cc1ccc(C(=O)NC2CC2)cc1)C1CC1 | < 70
COc1ccc(C2=C(c3ccc(OC)cc3)C3(c4ccccc4)C(=O)C2(c2ccccc2)C2C(=O)N(c4ccc(C)cc4)C(=O)C23)cc1 (stereo not given) | < 70
OC(Cn1nnc2ccccc21)Cn1c2ccc(Br)cc2c2cc(Br)ccc21 (stereo not given) | < 70
COc1ccc(-c2cc3ncnc(NCc4ccc(N5CCN(C)CC5)nc4)c3s2)cc1 | < 70
Cc1ccc2cc(C3NC(=O)c4ccccc4N3)c(Cl)nc2c1 (stereo not given) | < 70
Cc1cc(C=C2SC(=Nc3ccccc3)N(C3CCCC3)C2=O)c(C)n1-c1ccc(Cl)cc1 | < 70
O=C(NCc1ccco1)C1CCN(S(=O)(=O)c2ccc(Cl)cc2)CC1 | < 70
C=CCn1c(C)cc(C(=O)CNC(=O)Nc2ccccc2)c1C | < 70
CCOc1ccc2cc(-c3nn(CC4CCN(C)CC4)c4ncnc(N)c34)ccc2c1 | < 70
CC(Oc1ccccc1)C(=O)Nc1nc(-c2ccccn2)cs1 (stereo not given) | < 70
CCC(C)c1ccc(S(=O)(=O)N(Cc2ccc(C(=O)NC3CC3)cc2)C2CC2)cc1 (stereo not given) | < 70
O=S(=O)(NC1CCN(c2nn3cc(-c4ccccc4)nc3s2)CC1)c1cccs1 | < 70
CC(=O)c1c(C)[nH]c(C(=O)OCCOc2ccccc2)c1C | < 70
O=C(OCc1ccccc1)N1CCC(c2cc(-c3ccncc3)c(-c3ccc(F)cc3)[nH]2)CC1 | < 70
Nc1nccnc1C(=O)Nc1ccc(C23CC4CC(CC(C4)C2)C3)cc1 | < 70
